Data published in PubChem BioAssay AID1648 (Sanford-Burnham Center for Chemical Genomics, 2009).
The source made the active and inactive calls. How the calls were made is not given here.

Target: Serine/threonine-protein kinase mTOR (Homo sapiens) (UniProt P42345)
Assay: binders of mTOR FRB domain, biophysical, NMR (AID 1648)
Settings: NMR binding to FRB domain, chemical shift

Serine/threonine-protein kinase mTOR (Homo sapiens), sequence (P42345 2015-2114): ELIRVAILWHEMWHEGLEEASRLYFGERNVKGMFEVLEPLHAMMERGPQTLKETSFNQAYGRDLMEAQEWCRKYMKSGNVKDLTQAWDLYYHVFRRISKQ

Compound | Kd
CC1(C)Cc2cccc(CO)c2O1 | > 4 mM (inactive)
Nc1cc(N)nc(SCc2cccnc2)n1 | > 4 mM (inactive)
NC(=O)c1ccc(Cl)c(N2C(=O)CCC2=O)c1 | > 4 mM (inactive)
O=C(Nc1c[nH]c(=O)[nH]c1=O)c1cccs1 | > 4 mM (inactive)
O=C(O)C1CCN(S(=O)(=O)c2cccs2)CC1 | > 4 mM (inactive)
CCC(C)C(=O)O[C@H]1[C@H](O)C2C(CN3CC(C)CCC3[C@@]2(C)O)C2C[C@]34O[C@]5(O)C(OC(=O)C(C)(O)C(C)O)CC[C@@]3(C)C5C(OC(C)=O)[C@@H](OC(C)=O)C4[C@@]21O (some centres undefined) | > 4 mM (inactive)
S=C(NC1CC1)NN1CCOCC1 | > 4 mM (inactive)
CN(Cc1nc2ccccc2n1C)S(C)(=O)=O | > 4 mM (inactive)
O=C(Nc1ccon1)c1cc2c(s1)CCCC2 | > 4 mM (inactive)
CC[C@H]1CN2CCc3cc(OC)c(OC)cc3C2C[C@@H]1CC1NCCc2cc(OC)c(OC)cc21 (some centres undefined) | > 4 mM (inactive)
CCOc1cc(C)c(Cl)cc1S(=O)(=O)N(C)C | > 4 mM (inactive)
NC(Cn1ccc(=O)c(O)c1)C(=O)O (centres undefined) | > 4 mM (inactive)
O=C1CN(C(=O)c2ccccc2F)c2ccccc2N1 | > 4 mM (inactive)
O=C(Cc1c(F)cccc1Cl)Nc1ccon1 | > 4 mM (inactive)
CN(C(=O)c1cc2cccnc2n(C)c1=O)c1ccccc1 | > 4 mM (inactive)
C[C@H]1[C@H]2CCC3C4CC=C5C[C@@H](N(C)C)CC[C@]5(C)C4CC[C@@]32CN1C (some centres undefined) | > 4 mM (inactive)
O=C1NC(=Nc2ccccc2Cl)SC1(CO)CO | > 4 mM (inactive)
C=C1C2=CC(=O)O[C@@H](c3ccoc3)[C@]2(C)CCC1[C@@]1(C)C=CC(=O)C(C)(C)[C@@H]1CC(=O)OC (some centres undefined) | > 4 mM (inactive)
CN1CCN(C(=S)NC(=O)c2ccn(C)n2)CC1 | > 4 mM (inactive)
Cc1ccccc1NC(=O)CSc1ccnc(=O)[nH]1 | > 4 mM (inactive)
COc1nc(C#N)c(N2CCOCC2)o1 | > 4 mM (inactive)

Compound | Kd
CC(=O)Nc1ccc(S(=O)(=O)N(C)C)cc1 | > 4 mM (inactive)
Cc1cccc(C)c1NC(=O)/C=C/C(=O)O | > 4 mM (inactive)
Cc1occc1C(=O)Nc1nccs1 | > 4 mM (inactive)
Cc1nc2cc(Cl)ccc2n1CCO | > 4 mM (inactive)
COc1ccc(-c2nc(C)sc2CC(=O)O)cc1 | > 4 mM (inactive)
COC(=O)c1cc(-c2c(C)nn(-c3ccccc3)c2C)n[nH]1 | > 4 mM (inactive)
CC1(C)Cc2cccc(C(=O)O)c2O1 | > 4 mM (inactive)
COc1ccc(CN2CCC(O)CC2)c(O)c1 | > 4 mM (inactive)
NC1=NC(=O)/C(=C/c2ccccc2[N+](=O)[O-])S1 | > 4 mM (inactive)
O=C1N=c2ccccc2=C1c1sc(=S)[nH]c1O | > 4 mM (inactive)
CCOc1ccccc1C(=O)NC1=NCCS1 | > 4 mM (inactive)
NC(=O)C1CCN(C(=O)c2ccco2)CC1 | > 4 mM (inactive)
COC(=O)Cc1cc(=O)n(-c2ccccc2)[nH]1 | > 4 mM (inactive)
N#Cc1cnn(-c2ccc(Cl)cc2)c1N | > 4 mM (inactive)
O=C(O)C1CN2CCC1CC2 (centres undefined) | > 4 mM (inactive)
Cc1cccc(NC(=O)CN2C(=O)CNC2=O)c1 | > 4 mM (inactive)
CC(C)=CCOc1cc2oc(=O)ccc2cc1O | > 4 mM (inactive)
CC(=O)O[C@H]1CC[C@@]2(C)C(CC[C@]3(C)C2C(=O)C=C2C4[C@@H](C)[C@H](C)CC[C@]4(C(=O)O)CC[C@]23C)C1(C)C (some centres undefined) | > 4 mM (inactive)
O=C(O)C(Cc1cnc[nH]1)N1C(=O)c2ccccc2C1=O (centres undefined) | > 4 mM (inactive)
O=C(Nc1ccccn1)C(=O)N1CCCC1 | > 4 mM (inactive)
OCC1CCCCCN1 (centres undefined) | > 4 mM (inactive)

Compound | Kd
FC(F)(F)c1cc(-c2ccco2)nc(N2CCOCC2)n1 | > 4 mM (inactive)
NC(=O)C12CC3CC(C1)C(=O)C(C3)C2 | > 4 mM (inactive)
Nc1cccc(-n2cnnn2)c1 | > 4 mM (inactive)
NC(=O)C1CCCN1S(=O)(=O)c1ccc(F)cc1 (centres undefined) | > 4 mM (inactive)
CCOC(=O)c1cnc2n(c1=O)CCS2 | > 4 mM (inactive)
O=C1C=C(Nc2ccc(O)cc2)c2ccccc2C1=O | > 4 mM (inactive)
Cc1cc(O)c(NC(=O)c2ccco2)cc1C | > 4 mM (inactive)
c1cncc(Cn2cccc2)c1 | > 4 mM (inactive)
Cc1nnc(NCCN2CCOCC2)[nH]c1=O | > 4 mM (inactive)
COCC(=O)Nc1c(C(N)=O)oc2ccccc12 | > 4 mM (inactive)
Cc1occc1C(=O)N1CCN(S(C)(=O)=O)CC1 | > 4 mM (inactive)
O=c1ccn(Cc2ccccc2)c(=O)n1Cc1ccccc1 | > 4 mM (inactive)
COc1cc2c(cc1OC)-c1cc3ccc(OC)c(OC)c3c[n+]1CC2 | > 4 mM (inactive)
COc1c2c(c(CC=C(C)C)c3oc(=O)c(-c4ccc(O)cc4)c(O)c13)OC(C)(C)C=C2 | > 4 mM (inactive)
Cc1cccc(NC(=O)NC(N)=O)c1 | > 4 mM (inactive)
COc1cc2c(cc1OC)C1=C(C#N)CCC(=O)N1CC2 | > 4 mM (inactive)
Cc1ccc(NC(=O)/C=C2\SC(=O)NC2=O)cc1 | > 4 mM (inactive)
CC12CCCC(O)(C1)C1CC(C)(C)C1CC2 (centres undefined) | > 4 mM (inactive)
Nc1ccc2c(C(F)(F)F)cc(=O)oc2c1 | > 4 mM (inactive)
C/C=C/C(=O)Nc1ccc(NC(C)=O)cc1 | > 4 mM (inactive)
O=C(O)CCCC(=O)Nc1nccs1 | > 4 mM (inactive)

Compound | Kd
CC1=CC(C)C(C(=O)O)C(C(=O)N2CCN(C)CC2)C1 (centres undefined) | > 4 mM (inactive)
COC(=O)c1c(OC)cc2c(c1C)Oc1c(Cl)c(OC(C)=O)c(Cl)c(C)c1C(=O)O2 | > 4 mM (inactive)
Oc1cc(O)cc(/C=C/c2ccccc2)c1 | > 4 mM (inactive)
O=C1CCCN1C(=O)CN1CCOCC1 | > 4 mM (inactive)
COc1ccccc1-c1nc(-c2ccc(C)nc2OC)no1 | > 4 mM (inactive)
O=C(O)C1CSC(c2cccnc2)N1 (centres undefined) | > 4 mM (inactive)
Nc1ccc(-c2cn3c(n2)SCC3)cc1 | > 4 mM (inactive)
OCc1ccccc1N1CCOCC1 | > 4 mM (inactive)
CSc1ncc(C(=O)O)n1Cc1ccccc1 | > 4 mM (inactive)
Nc1nc(-c2nc3ccccc3[nH]2)cs1 | > 4 mM (inactive)
O=C(c1cccnc1Cl)N1CCOCC1 | > 4 mM (inactive)
COc1cc(NC(=O)c2ccccc2)c(C)cc1N | > 4 mM (inactive)
CC(=O)OC[C@@]1(O)C[C@@]23CCC4c5ccoc5CC[C@]4(C)C2CC[C@@H]1C3 (some centres undefined) | > 4 mM (inactive)
CC(C)CCCC(C)[C@H]1CCC2C3CC=C4C[C@@H](O)CC[C@]4(C)C3CC[C@@]21C (some centres undefined) | > 4 mM (inactive)
O=C(Nc1nnc(-c2cccnc2)o1)c1ccccc1F | > 4 mM (inactive)
CN(C)C(=O)CSc1nc(N)cc(=O)[nH]1 | > 4 mM (inactive)
CNC(=O)c1cc(S(=O)(=O)N(C)C)ccc1Cl | > 4 mM (inactive)
Cc1ccc(CCC(N)=O)o1 | > 4 mM (inactive)
COc1ccc(C(C)=O)c(OC)c1 | > 4 mM (inactive)
NC(=O)Nc1cccc(C(F)(F)F)c1 | > 4 mM (inactive)
Cc1nc(N)sc1C(=O)Nc1nccs1 | > 4 mM (inactive)
